Assay [1] deals with postnatal rat retinal neuronal cells. As to the kind of experiment: calcein-AM survival assay, dissociated postnatal rat retinal neuronal cultures. The conditions noted are these: for relative fluorescence units (total number of cells surviving) versus untreated control: 100 nM, postnatal day 6 rat retina; for relative fluorescence units (total number of cells surviving) versus untreated control / fluorescence values (total number of cells surviving) versus untreated cultures: 4 days; for fluorescence values (total number of cells surviving) versus untreated cultures: peptides 100 uM, postnatal rat retina. The class given is cell-based. How it is done:
(§1) Retinas were dissected from embryonic chicks, dissociated by enzymatic digestion and cultured in vitro in defined insulin/serum-free medium according to Sato et al. (1979, Proc. Natl. Acad. Sci. USA 76:514-517). The number of cells in culture was measured using the vital stain calcein-AM. All cells are permeable to calcein-AM, but only live cells are capable of converting this compound into a fluorescent derivative detectable by ordinary methods. In the first experiment, calcein-AM (6 μM) was added to different cultures of retinal cells and the relationship between the level of fluorescence and the number of cells was determined.
To determine the concentration of IGF-I required to promote survival of pre- or postnatal retinal neurons in culture, the following experiments were carried out: Retinal neurons were prepared from dissociated retina obtained from 10 day old chick embryos, or from […] postnatal day 6 rats as described above. Cultures were incubated in the presence of increasing concentrations of IGF-I and the number of cells surviving at 48 hours post-treatment was measured in the calcein-AM assay. […] Based upon previously published data, the concentrations of IGF-I that promote neuronal cell survival in our experiments are consistent with the fact that IGF-I is acting through its own receptor (Karey et al., 1988, In Vitro Cell. Dev. Biol. 24:1107-1113; Ballard et al., 1988, Biochem. J. 249:721-726).
To determine whether retinal survival could be enhanced when incubated in the presence of functional derivatives of IGF-I and IGF-II, a linear fragment of IGF-II that is relatively conserved within both IGF-I and IGF-II, was tested in our assay. The fragment contained a sequence of 14 amino acids from IGF-II (amino acids 54-67, wherein the amino terminal amino acid of IGF-II is number 1).
To determine whether IGF-I, IGF-II, and IGF-III can promote the survival of retinal neuronal cells, dissociated cultures of postnatal rat retina were prepared and assayed for the total number of cells present after incubation in the presence or absence of IGFs. Retinas were dissected from postnatal day 6 rats, dissociated by enzymatic digestion and seeded at a density of 6.25×10^4 cells/cm^2 in defined insulin/serum-free media (Bottenstein et al., 1979, PNAS 76:514-517). These cultures are heterogenous, comprised of at least five independent retinal neuronal cell subpopulations, i.e., amacrine, bipolar, horizontal, photoreceptor and ganglion cells. Cultures were incubated in the presence or absence of 100 nM of each of the IGFs. The total number of cells remaining after 4 days was assayed by incubation with the vital stain calcein-AM at 6 uM. This compound is taken up by all cells but can only be converted to a fluorescent derivative by live cells.
To determine whether linear peptide derivatives of IGFs can support the survival of retinal neuronal cells, dissociated cultures of postnatal rat retina were prepared and assayed for the total number of cells present after incubation in the presence or absence of peptides (100 uM). Retinal neuronal cell cultures were prepared as described in Example 11 and the total number of cells surviving analyzed analogously. Peptides were derived from the amino acid regions 7-30 and 55-70 of IGF-I and […] and the region within IGF-II, amino acids 54-67.

Assay [2] deals with photoreceptor cells. The class given is cell-based, rat. As to the method: To quantitate this assay, we developed a cell-based Rho42 ELISA test as follows: Several postnatal rat retinal cultures containing different numbers of cells, were incubated for 2-4 days following which cultures were fixed and immunolabelled with either the Rho42 monoclonal antibody, or the nonspecific monoclonal antibody P3, secreted by the myeloma cell line P3X6Ag8. Antibody binding was detected using a secondary antibody labelled with horseradish peroxidase and a chromogenic substrate O-phenylenediamine (OPD), having a maximum absorption wavelength of 490 nm. The level of absorption of light at 490 nm measured in the cultures is therefore directly related to the amount of primary antibody that originally bound to the cells. In FIG. 8 it can be seen that there is a linear relationship between the level of absorption at 490 nm and the number of cells in each culture.
Next, rat retinal neuronal cultures were incubated in the presence of IGF-I or IGF-II (54-67) for 48 hours following which they were subjected to the cell-based ELISA test as described above. Both IGF-I and IGF-II (54-67) promoted the survival of photoreceptor cells by 20-30% compared with control untreated cultures.

For assay [3], the system named is retinal neurons. As to the kind of experiment: retinal neurite regeneration, phase contrast microscopy. The class given is cell-based. The settings on record: 100 nM, 2-4 days following treatment, insulin/serum-free media. As to the method: To determine whether IGF-I affects retinal neurite regeneration, a population of neurons prepared from dissociated retina was cultured in defined insulin/serum-free media in the presence or absence of 100 nM IGF-I. Cultures were examined by phase contrast microscopy at 2-4 days following IGF-I treatment.

Assay [4] has as its system photoreceptor subpopulation of cells. In words: Rho42 antibody fluorescence staining of postnatal rat retinal neuronal cultures. The class given is cell-based. The settings on record: 100 nM, 48 hours. As to the method: To determine whether IGF-I or IGF-II (54-67) could specifically promote survival of the photoreceptor subpopulation of cells in rat retinal neuronal cultures, the following experiments were carried out: The monoclonal antibody Rho42, which binds to an antigenic epitope within the extracellular domain of rhodopsin expressed on the surface of rod photoreceptor cells (Molday and MacKenzie, 1983, Biochemistry 22:653), was used in this assay. Postnatal rat retinal neuronal cultures were incubated in the presence or absence of 100 nM of IGF-I for 48 hours. Cells were harvested and reacted with Rho42 to which a fluorescent label had been added. Slides were prepared and the level of fluorescence in the cultures was qualitatively assessed using a fluorescence microscope.

Assay [5] deals with retinal neuronal cells. In words: calcein-AM survival assay, dissociated embryonic chick retinal cultures. The class given is cell-based. The settings on record: 48 hours post-treatment. As to the method:
To determine whether IGF-1 acts to promote survival of retinal neuronal cells, dissociated cultures of avian retina were prepared from animals at various developmental ages and the number of cells present in the cultures, following incubation for 48 hours in the presence or absence of IGF-I, was measured.
as §1
In the next experiment, IGF-I was added to half of the cultures at a final concentration of 100 nM, and the number of cells remaining at 48 hours post-treatment was measured using the calcein-AM assay described above. […]

Where two headings read alike, the source gives them in different places. Non-standard residues stand in square brackets, D forms with d. No end group written: not given here. Tyr(3,5-I2) = N[C@@H](Cc1cc(I)c(O)c(I)c1)C(=O)O

As for “IGF-III: truncated form of IGF-I lacking the three N-terminal amino acid residues, SEQ ID NO:2”, in assay [1], the “relative fluorescence units (total number of cells surviving) versus untreated control” value (“relative fluorescence units” below) is listed as “higher than that found for untreated control cultures”.
Consider CAPAKSE, for which the “fluorescence values (total number of cells surviving) versus untreated cultures” value in assay [1] is “higher fluorescence values than untreated cultures”.
For the compound “GAELVDALQFVSGDRGFYFNKPTG (GAELVDALQFYSGDRGFYFNKPTG)”, the “fluorescence values (total number of cells surviving) versus untreated cultures” value in assay [1] is on record as “higher fluorescence values than untreated cultures”.
Still for that read-out and setting: the entry for YCAPA is “higher fluorescence values than untreated cultures”; for CATPAKSE it is “higher fluorescence values than untreated cultures”.
On the same count and under the same terms, the entry for TYCAPA is “higher fluorescence values than untreated cultures”.
For `CC(C)C[C@H](NC(=O)[C@H](C)N)C(=O)N[C@@H](CC(C)C)C(=O)N[C@@H](CCC(=O)O)C(=O)N[C@H](C(=O)N[C@@H](Cc1ccc(O)cc1)C(=O)N[C@@H](CS)C(=O)N[C@@H](C)C(=O)N[C@H](C(=O)N1CCC[C@H]1C(=O)N[C@@H](C)C(=O)N[C@@H](CCCCN)C(=O)N[C@@H](CO)C(=O)N[C@@H](CCC(=O)O)C(=O)O)[C@@H](C)O)[C@@H](C)O` [IGF-II (54-67), ALLETYCATPAKSE], the “promoted survival of photoreceptor cells compared with control untreated cultures” value in assay [2] (48 h) is reported as 20-30%.
On to “IGF-I: Recombinant human insulin-like growth factor I (somatomedin C), 70 amino acids, SEQ ID NO:1”, for which the “relative fluorescence units” value in assay [1] was “higher than that found for untreated control cultures”. Besides, the “survival of postnatal retinal neurons versus concentration” value in assay [1] (postnatal day 6 rats, increasing concentrations, 48 hours post-treatment) is recorded as “promote survival of retinal neurons in culture in a dose-dependent manner”. In addition, in assay [3], the “cells with neurites (axonal regeneration)” value was “more cells with neurites than untreated control cultures”. In assay [4], the “level of Rho42 fluorescence (photoreceptor survival), qualitative” value is “increased level of fluorescence compared to untreated cultures”. Also, the “promoted survival of photoreceptor cells compared with control untreated cultures” value in assay [2] (48 hours, rat retinal neuronal cultures) is given as 20-30%. Besides, the “enhanced survival of cells compared to control, untreated cultures” value in assay [5] (100 nM, retinal cultures from embryos at 8, 10, 12 and 14 days of age) is on record as 20-60%. Besides, the “survival of prenatal retinal neurons versus concentration” value in assay [5] (10 day old chick embryos, increasing concentrations) is “promote survival of retinal neurons in culture in a dose-dependent manner”.
As for “TY(I2)CAPAKSE (T[Tyr(3,5-I2)]CAPAKSE) [iodinated TYCAPAKSE]”, the “fluorescence values (total number of cells surviving) versus untreated cultures” value in assay [1] is recorded as “higher fluorescence values than untreated cultures”.
On the same count and under the same terms, the entry for EALLETYCATPAKSE is “higher fluorescence values than untreated cultures”.
For “IGF-II: Recombinant human insulin-like growth factor II, 67 amino acids, SEQ ID NO:16”, the “relative fluorescence units” value in assay [1] is reported as “higher than that found for untreated control cultures”.

The values are drawn from US6310040A, “Treating retinal neuronal disorders by the application of insulin-like growth factors and analogs” (Cephalon, Inc., priority 1992, dated 2001).
